Values of other authors as cited in patent US7994210B2, “Method of treating Down Syndrome” (priority 2004, dated 2011).
Where two headings read alike, the source gives them in different places.

Key:
[1] = system: beta-amyloid precursor protein (beta-APP)
acetylcholinesterase = acetylcholinesterase (Homo sapiens, UniProt P22303)
[2] = listed as (+)9-N-phenylcarbinol eseroline

Sequence of acetylcholinesterase (P22303 32-614, species assumed): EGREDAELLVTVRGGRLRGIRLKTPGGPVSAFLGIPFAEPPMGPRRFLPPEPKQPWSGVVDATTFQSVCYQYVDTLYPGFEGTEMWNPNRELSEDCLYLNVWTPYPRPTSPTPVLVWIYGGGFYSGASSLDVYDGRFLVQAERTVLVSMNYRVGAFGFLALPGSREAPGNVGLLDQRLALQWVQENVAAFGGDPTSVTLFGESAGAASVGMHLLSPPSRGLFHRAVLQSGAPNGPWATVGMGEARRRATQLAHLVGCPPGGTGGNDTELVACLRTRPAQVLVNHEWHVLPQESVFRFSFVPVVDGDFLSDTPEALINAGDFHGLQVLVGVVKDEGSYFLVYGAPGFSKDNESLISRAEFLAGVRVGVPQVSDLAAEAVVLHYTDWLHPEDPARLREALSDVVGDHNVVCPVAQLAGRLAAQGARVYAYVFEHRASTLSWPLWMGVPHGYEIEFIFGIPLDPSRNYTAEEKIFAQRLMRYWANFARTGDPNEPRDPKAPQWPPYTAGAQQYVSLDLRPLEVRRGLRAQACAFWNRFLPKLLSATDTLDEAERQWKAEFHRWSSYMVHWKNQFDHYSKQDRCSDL

For `CN1CC[C@]2(C)c3cc(OC(=O)Nc4ccccc4)ccc3N(C)[C@H]12` [(+)-Phenserine, (+)9-N-phenylcarbinol eseroline], the “production/formation of β-APP” value [1] is given as “reduces the production of β-APP”, the “production/formation of β-APP” value [1, 2] is given as “inhibits β-APP production” and the acetylcholinesterase inhibitor activity (acetylcholinesterase) is given as “lacking significant acetylcholinesterase inhibitor activity”. The acetylcholinesterase inhibitor activity (acetylcholinesterase; [2]) was “lacks anticholinesterase activity”.
